Laboratory results as given in patent US10710992B2, “Substituted pyridinones as bromodomain inhibitors” (Zenith Epigenetics Ltd., priority 2014, dated 2020).

Columns and labels:
[1] = system: hIL-6 mRNA; test: Inhibition of hIL-6 mRNA transcription in LPS-stimulated U937 cells; format: cell-based; details: Homo sapiens, U-937; PMA-differentiated U937 cells, 1 h pretreatment, LPS 1 ug/mL, 3 h; read-out: IL-6 activity
Experimental: Human leukemic monocyte lymphoma U937 cells (CRL-1593.2) were plated at a density of 3.2×10^4 cells per well in a 96-well plate in 100 μL RPMI-1640 containing 10% FBS and penicillin/streptomycin, and differentiated into macrophages for 3 days in 60 ng/mL PMA ([…]) at 37° C. in 5% CO2 prior to the addition of compound. The cells were pretreated for 1 h with increasing concentrations of test compound in 0.1% DMSO prior to stimulation with 1 ug/mL lipopolysaccharide from Escherichia coli. Triplicate wells were used for each concentration. The cells were incubated at 37° C., 5% CO2 for 3 h before the cells were harvested. At time of harvest, media was removed and cells were rinsed in 200 μL PBS. Cells were harvested using the mRNA Catcher PLUS kit according to manufacturer's instructions. The eluted mRNA was then used in a one-step quantitative real-time PCR reaction using components of the RNA UltraSense™ One-Step Kit (Life Technologies) together with Applied Biosystems TaqMan® primer-probes for hIL-6 and Cyclophilin. Real-time PCR plates were run on a ViiA™ 7 real time PCR machine (Applied Biosystems), data was analyzed, normalizing the Ct values for hIL-6 to an internal control, prior to determining the fold expression of each sample, relative to the control.

[2] = system: Human AML MV-4-11 cells; test: Inhibition of cell proliferation in cancer cell lines (CellTiter Aqueous One); format: cell-based; details: Homo sapiens; MV4-11 cells, 72 h
Experimental: MV4-11 cells (CRL-9591) were plated at a density of 5×10^4 cells per well in 96 well flat bottom plates and treated with increasing concentrations of test compound or DMSO (0.1%) in IMDM media containing 10% FBS and penicillin/streptomycin. Triplicate wells were used for each concentration and a well containing only media was used as a control. Plates were incubated at 37° C., 5% CO2 for 72 h before adding 20 μL of the CellTiter Aqueous One Solution (Promega) to each well and incubated at 37° C., 5% CO2 for an additional 3-4 h. The absorbance was read at 490 nm in a spectrophotometer and the percentage of cell titer relative to DMSO-treated cells was calculated after correcting for background by subtracting the blank well's signal. IC50 values were calculated using the GraphPad Prism software.

[3] = system: c-myc in Human AML MV4-11 cells; test: Inhibition of cMYC expression in cancer cell lines (mRNA, real-time PCR); format: cell-based; details: 3 h, cMYC mRNA normalized to Cyclophilin; for IC50: Homo sapiens
Experimental: MV4-11 cells (CRL-9591) were plated at a density of 2.5×10^4 cells per well in 96 well U-bottom plates and treated with increasing concentrations of test compound or DMSO (0.1%) in IMDM media containing 10% FBS and penicillin/streptomycin, and incubated for 3 h at 37° C. Triplicate wells were used for each concentration. Cells were pelleted by centrifugation and harvested using the mRNA Catcher PLUS kit according to manufacturer's instructions. The eluted mRNA isolated was then used in a one-step quantitative real-time PCR reaction, using components of the RNA UltraSense™ One-Step Kit (Life Technologies) together with Applied Biosystems TaqMan® primer-probes for cMYC and Cyclophilin. Real-time PCR plates were run on a ViiA™ 7 real time PCR machine (Applied Biosystems), data was analyzed, normalizing the Ct values for cMYC to an internal control, prior to determining the fold expression of each sample, relative to the control.

[4] = molecular target: T1, Brd4 bromodomain 1 (BRD4(1)) (Homo sapiens, UniProt O60885); test: Inhibition of tetra-acetylated histone H4 binding to BET bromodomain (HTRF/FRET); details: His-tagged bromodomain 200 nM, tetra-acetylated histone H4 peptide, 2 h room temperature
T1 construct: made in house; host or cells: E. coli BL21(DE3)
Experimental: Proteins were cloned and overexpressed with a N-terminal 6× His tag, then purified by nickel affinity followed by size exclusion chromatography. Briefly, E. coli BL21(DE3) cells were transformed with a recombinant expression vector encoding N-terminally Nickel affinity tagged bromodomains from Brd2, Brd3, Brd4. Cell cultures were incubated at 37° C. with shaking to the appropriate density and induced overnight with IPTG. The supernatant of lysed cells was loaded onto Ni-IDA column for purification. Eluted protein was pooled, concentrated and further purified by size exclusion chromatography. Fractions representing monomeric protein were pooled, concentrated, aliquoted, and frozen at −80° C. for use in subsequent experiments.
Binding of tetra-acetylated histone H4 and BET bromodomains was confirmed by a Homogenous Time Resolved Fluorescence Resonance Energy Transfer (HTRF®) method. N-terminally His-tagged bromodomains (200 nM) and biotinylated tetra-acetylated historic H4 peptide (25-50 nM, Millipore) were incubated in the presence of Europium Cryptate-labeled streptavidin (Cisbio Cat. #610SAKLB) and XL665-labeled monoclonal anti-His antibody (Cisbio Cat. #61HISXLB) in a white 96 well microtiter plate (Greiner). For inhibition assays, serially diluted test compound was added to these reactions in a 0.2% final concentration of DMSO. Duplicate wells were used for each concentration tested. Final buffer concentrations were 30 mM HEPES pH 7.4, 30 mM NaCl, 0.3 mM CHAPS, 20 mM phosphate pH 7.0, 320 mM KF, 0.08% BSA. After a 2 h incubation at room temperature, fluorescence was measured at 665 and 620 nm with a SynergyH4 plate reader (Biotek). The binding inhibitory activity was shown by a decrease in 665 nm relative to […] fluorescence. IC50 values were determined from a dose response curve.

Compound	IC50 [1] [nM]	IC50 [2] [nM]	IC50 [4] [nM]	IC50 [3] [nM]	c-myc activity [3]
Cc1noc(C)c1-c1c[nH]c(=O)c(NCc2ccncc2)c1 [Example 11, 5-(3,5-dimethylisoxazol-4-yl)-3-((pyridin-4-ylmethyl)amino)pyridin-2(1H)-one]	300 to 3000	3000 to 30000	300 to 3000	3000 to 30000	
Cc1noc(C)c1-c1c[nH]c(=O)c(Nc2ccccc2F)c1 [Example 15, 5-(3,5-dimethylisoxazol-4-yl)-3-((2-fluorophenyl)amino)pyridin-2(1H)-one]			300 to 3000		
Cc1noc(C)c1-c1c[nH]c(=O)c(Nc2ccc(F)cc2)c1 [Example 16, 5-(3,5-dimethylisoxazol-4-yl)-3-((4-fluorophenyl)amino)pyridin-2(1H)-one]			300 to 3000		
Cc1noc(C)c1-c1c[nH]c(=O)c(NC(C)c2ccc(Cl)cc2)c1 (centres unmarked) [Example 18, 3-((1-(4-chlorophenyl)ethyl)amino)-5-(3,5-dimethylisoxazol-4-yl)pyridin-2(1H)-one]		3000 to 30000	300 to 3000	300 to 3000	
Cc1noc(C)c1-c1c[nH]c(=O)c(NCc2ccc(Br)cc2)c1 [Example 19, 3-((4-bromobenzyl)amino)-5-(3,5-dimethylisoxazol-4-yl)pyridin-2(1H)-one]		3000 to 30000	300 to 3000	3000 to 30000	
Cc1noc(C)c1-c1c[nH]c(=O)c(NCCc2ccccc2)c1 [Example 22, 5-(3,5-dimethylisoxazol-4-yl)-3-(phenethylamino)pyridin-2(1H)-one]			300 to 3000		
Cc1noc(C)c1-c1c[nH]c(=O)c(OCc2ccc(C#N)cc2)c1 [Example 25, 4-(((5-(3,5-dimethylisoxazol-4-yl)-2-oxo-1,2-dihydropyridin-3-yl)oxy)methyl)benzonitrile]			300 to 3000		
Cc1noc(C)c1-c1c[nH]c(=O)c(OCc2ccccn2)c1 [Example 26, 5-(3,5-dimethylisoxazol-4-yl)-3-(pyridin-2-ylmethoxy)pyridin-2(1H)-one]			300 to 3000		
Cc1noc(C)c1-c1c[nH]c(=O)c(Nc2ccc(C#N)cc2)c1 [Example 28, 4-((5-(3,5-dimethylisoxazol-4-yl)-2-oxo-1,2-dihydropyridin-3-yl)amino)benzonitrile]			300 to 3000		
Cc1noc(C)c1-c1c[nH]c(=O)c(Nc2ccc(Cl)cc2)c1 [Example 29, 3-((4-chlorophenyl)amino)-5-(3,5-dimethylisoxazol-4-yl)pyridin-2(1H)-one]		3000 to 30000	300 to 3000	3000 to 30000	
Cc1noc(C)c1-c1c[nH]c(=O)c(NCc2cnoc2)c1 [Example 31, 5-(3,5-dimethylisoxazol-4-yl)-3-((isoxazol-4-ylmethyl)amino)pyridin-2(1H)-one]			300 to 3000		
Cc1noc(C)c1-c1c[nH]c(=O)c(-c2c(C)noc2C)c1 [Example 32, 3,5-bis(3,5-dimethylisoxazol-4-yl)pyridin-2(1H)-one]			3000 to 30000		
Cc1noc(C)c1-c1c[nH]c(=O)c(NCc2nc3ccccc3[nH]2)c1 [Example 38, 3-(((1H-benzo[d]imidazol-2-yl)methyl)amino)-5-(3,5-dimethylisoxazol-4-yl)pyridin-2(1H)-one]			300 to 3000		

Continued, in another order:

IC50 [1] [nM]	IC50 [2] [nM]	IC50 [4] [nM]	Compound	IC50 [3] [nM]	c-myc activity [3]
300 to 3000	3000 to 30000	≤ 300	Cc1noc(C)c1-c1c[nH]c(=O)c(N[C@@H](C)c2ccccn2)c1 (single isomer, unassigned) [Example 41]	3000 to 30000	
300 to 3000	300 to 3000	≤ 300	Cc1noc(C)c1-c1c[nH]c(=O)c(N[C@H](C)c2ccccn2)c1 (single isomer, unassigned) [Example 42]		Not Active
300 to 3000	3000 to 30000	300 to 3000	Cc1noc(C)c1-c1c[nH]c(=O)c(Nc2cccc(F)c2)c1 [Example 3, 5-(3,5-dimethylisoxazol-4-yl)-3-((3-fluorophenyl)amino)pyridin-2(1H)-one]	300 to 3000	
		300 to 3000	Cc1noc(C)c1-c1c[nH]c(=O)c(Oc2ccccc2)c1 [Example 5, 5-(3,5-dimethylisoxazol-4-yl)-3-phenoxypyridin-2(1H)-one]		
300 to 3000	300 to 3000	≤ 300	Cc1cccc(Nc2cc(-c3c(C)noc3C)c[nH]c2=O)c1 [Example 6, 5-(3,5-dimethylisoxazol-4-yl)-3-(m-tolylamino)pyridin-2(1H)-one]		
	3000 to 30000	300 to 3000	COc1cccc(Nc2cc(-c3c(C)noc3C)c[nH]c2=O)c1 [Example 7, 5-(3,5-dimethylisoxazol-4-yl)-3-((3-methoxyphenyl)amino)pyridin-2(1H)-one]		
300 to 3000	3000 to 30000	≤ 300	Cc1noc(C)c1-c1c[nH]c(=O)c(NCc2ccc(Cl)cc2)c1 [Example 8, 3-((4-chlorobenzyl)amino)-5-(3,5-dimethylisoxazol-4-yl)pyridin-2(1H)-one]	3000 to 30000	
300 to 3000	3000 to 30000	≤ 300	Cc1noc(C)c1-c1c[nH]c(=O)c(NCc2ccc(C#N)cc2)c1 [Example 9, 4-(((5-(3,5-dimethylisoxazol-4-yl)-2-oxo-1,2-dihydropyridin-3-yl)amino)methyl)benzonitrile]	300 to 3000	
300 to 3000	3000 to 30000	300 to 3000	Cc1noc(C)c1-c1c[nH]c(=O)c(NCc2ccc(C(F)(F)F)cc2)c1 [Example 10, 5-(3,5-dimethylisoxazol-4-yl)-3-((4-(trifluoromethyl)benzyl)amino)pyridin-2(1H)-one]	3000 to 30000	
300 to 3000	300 to 3000	≤ 300	Cc1noc(C)c1-c1c[nH]c(=O)c(NCc2ccc(Cl)s2)c1 [Example 12, 3-(((5-chlorothiophen-2-yl)methyl)amino)-5-(3,5-dimethylisoxazol-4-yl)pyridin-2(1H)-one]		
300 to 3000	300 to 3000	≤ 300	Cc1noc(C)c1-c1c[nH]c(=O)c(NCc2ccsc2)c1 [Example 13, 5-(3,5-dimethylisoxazol-4-yl)-3-((thiophen-3-ylmethyl)amino)pyridin-2(1H)-one]	300 to 3000	
300 to 3000		≤ 300	Cc1noc(C)c1-c1c[nH]c(=O)c(NCc2cccnc2)c1 [Example 23, 5-(3,5-dimethylisoxazol-4-yl)-3-((pyridin-3-ylmethyl)amino)pyridin-2(1H)-one]	300 to 3000	
